Laboratory results published in US7495027B2, “3-aryl-4-hydroxyfuranone compounds and the human and animal health use thereof” (Wyeth, priority 2003, dated 2009).

What was measured:
C. elegans = assay: Efficacy against nematodes (C. elegans motility rating); design: key: 0: no effect; 7: reduced movement in 24 h; 8: dead in 24 h; 9: dead in 4 h; details: observations at 4 h and 24 h postimmersion
Summary of the method: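 Mixed-stage C. elegans (~50 per well, L1 to adult) in M9 buffer exposed to test compound at 100 ppm, 150 ppm or 200 μM final. Motility of larvae and adults scored under dissecting microscope at 4 h and 24 h.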

[1] = Toxicity in treated gerbils (deaths or significant weight loss); format: in vivo; design: key: +: Toxicity is indicated for those groups having one or more animals expired; details: single oral dose of 50 mg/kg
Description: In this evaluation, gerbils are infected with Trichostrongylus columbriformis infective larvae at a concentration of approximately 800 L3/mL. Larvae for gerbil infections are cultured from feces from sheep previously infected with T. colubriformis. One week post infection, test compounds are administered by gavage as a single oral dose of 50 mg/kg of body weight. For each group of 3 gerbils, 10 mg of test compound are dissolved in 2 mL of PEG 400:DMSO (1:2 v/v) and each animal is administered the test solution at a rate of 0.1 mL/10 g of body weight. […] All animals are observed daily for morbidity and mortality. Four days post-treatment, all animals are weighed and necropsied. Worm counts are conducted with the use of stereoscopes and counters.

[2] = tested on: Trichostrongylus columbriformis; assay: In vivo efficacy against T. colubriformis in infected gerbils; details: gerbils infected with T. colubriformis, single oral dose of 50 mg/kg by gavage, worm counts four days post-treatment, % mortality as compared to negative control
Summary of the method: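 Gerbils infected with ~800 L3/mL larvae were treated one week later by gavage with a single 50 mg/kg oral dose in PEG 400:DMSO (1:2 v/v), 3 animals per group. Necropsy four days post-treatment, with worms counted under stereoscopes.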

Row | Compound | Rating (C. elegans; dose 100 ppm) | Toxicity ([1]; groups of 3) | Mortality [2] [%] | Rating (C. elegans; dose 150 ppm) | Toxicity ([1]; groups of 3, 50 mg/kg) | Mortality ([2]; 50 mg/kg) [%]
1 | N#Cc1ccc(C2=C(O)C(=Cc3ccc(OC(F)(F)F)cc3)OC2=O)cc1 (mixture of isomers) [R=H; R1=4-CN—C6H4**; R2=4-OCF3—C6H4] | 9 | + | 90.00 |  |  | 
2 | O=C1OC(=Cc2ccc(F)cc2)C(O)=C1c1ccc(Cl)cc1 (mixture of isomers) [R=H; R1=4-Cl—C6H4**; R2=4-F—C6H4] | 9 | + | 72.60 |  |  | 
3 | O=C1OC(=Cc2ccc(Cl)c(Cl)c2)C(O)=C1c1ccc(OC(F)(F)F)cc1 (mixture of isomers) [R=H; R1=4-OCF3—C6H4**; R2=3,4-diCl—C6H3] | 9 | + | 100.0 |  |  | 
4 | O=C1OC(=Cc2ccc(F)c(F)c2)C(O)=C1c1ccc(OC(F)(F)F)cc1 (mixture of isomers) [R=H; R1=4-OCF3—C6H4**; R2=3,4-diF—C6H3] | 9 | + | 100.0 |  |  | 
5 | O=C1OC(=Cc2ccc(C(F)(F)F)cc2)C(O)=C1c1ccc(OC(F)(F)F)cc1 (mixture of isomers) [R=H; R1=4-OCF3—C6H4**; R2=4-CF3—C6H4] | 9 | + | 55.50 |  |  | 
6 | N#Cc1ccc(C=C2OC(=O)C(c3ccc(OC(F)(F)F)cc3)=C2O)cc1 (mixture of isomers) [R=H; R1=4-OCF3—C6H4**; R2=4-CN—C6H4] | 9 | + | 88.90 |  |  | 
7 | O=C1OC(=Cc2ccc(Cl)cc2)C(O)=C1c1ccc(OC(F)(F)F)cc1 (mixture of isomers) [R=H; R1=4-OCF3—C6H4**; R2=4-Cl—C6H4] | 9 | + | 100.0 |  |  | 
8 | O=C1OC(=Cc2ccc(F)cc2)C(O)=C1c1ccc(OC(F)(F)F)cc1 (mixture of isomers) [R=H; R1=4-OCF3—C6H4**; R2=4-F—C6H4] | 9 | + | 0.00 |  |  | 
9 | O=C1OC(=Cc2ccc(OC(F)(F)F)cc2)C(O)=C1c1ccc(OC(F)(F)F)cc1 (mixture of isomers) [R=H; R1=4-OCF3—C6H4**; R2=4-OCF3—C6H4] | 9 | + | 100.0 |  |  | 
10 | O=C1O/C(=C\c2ccc(-c3ccccc3)cc2)C(O)=C1c1cc(C(F)(F)F)cc(C(F)(F)F)c1 [R=H; R1=3,5-diCF3—C6H3; R2=4-biphenyl] |  | + | 60.80 | 9 |  | 
11 | O=C1O/C(=C\c2ccc(-c3ccccc3)cc2)C(O)=C1c1cc(Cl)cc(Cl)c1 [R=H; R1=3,5-diCl—C6H3; R2=4-biphenyl] |  | + | 52.60 | 9 |  | 
12 | N#Cc1ccc(-c2ccc(/C=C3\OC(=O)C(c4ccc(Cl)cc4)=C3O)cc2)cc1 [R=H; R1=4-Cl—C6H4; R2=4-(4′-CN-biphenyl)] |  |  |  | 9 | + | 48.90
13 | O=C1O/C(=C\c2ccc(-c3ccc(Cl)cc3)cc2)C(O)=C1c1ccc(Cl)cc1 [R=H; R1=4-Cl—C6H4; R2=4-(4′-Cl-biphenyl)] |  | + | 61.33 | 9 |  | 
14 | O=C1O/C(=C\c2ccc(Cl)cc2)C(O)=C1c1ccc(Cl)cc1 [R=H; R1=4-Cl—C6H4; R2=4-Cl—C6H4] |  | + | 79.78 | 9 |  | 
